Residue numbers refer to the chain shown, from its start.
How the values were obtained:
Nocturnin (NOCT) [1] = biological target: T1, Nocturnin (NOCT) (Homo sapiens, UniProt Q9UK39); test: NADPH intrinsic fluorescence titration; type: binding
T1 sequence (Q9UK39 122-431): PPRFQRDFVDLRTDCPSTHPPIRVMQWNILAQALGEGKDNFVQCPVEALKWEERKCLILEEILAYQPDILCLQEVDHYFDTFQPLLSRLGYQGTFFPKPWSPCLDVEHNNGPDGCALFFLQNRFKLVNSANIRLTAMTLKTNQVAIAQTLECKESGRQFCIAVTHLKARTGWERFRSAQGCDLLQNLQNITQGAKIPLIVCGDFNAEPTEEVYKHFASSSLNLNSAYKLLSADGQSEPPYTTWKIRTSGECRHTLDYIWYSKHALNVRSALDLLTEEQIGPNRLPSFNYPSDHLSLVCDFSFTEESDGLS

Nocturnin (NOCT) [2] = biological target: T2, Nocturnin (NOCT) (Homo sapiens, UniProt Q9UK39, N149A); test: NADPH intrinsic fluorescence titration; type: binding
T2 sequence (Q9UK39 122-431 N149A): T1 sequence (Q9UK39 122-431) with N28A

Nocturnin (NOCT) [3] = biological target: T3, Nocturnin (NOCT) (Homo sapiens, UniProt Q9UK39, H286N); test: NADPH intrinsic fluorescence titration; type: binding
T3 sequence (Q9UK39 122-431 H286N): T1 sequence (Q9UK39 122-431) with H165N

Nocturnin (NOCT) [4] = biological target: T4, Nocturnin (NOCT) (Homo sapiens, UniProt Q9UK39, H414N); test: NADPH intrinsic fluorescence titration; type: binding
T4 sequence (Q9UK39 122-431 H414N): T1 sequence (Q9UK39 122-431) with H293N

Nocturnin (NOCT) [5] = biological target: T1, Nocturnin (NOCT); test: steady-state phosphatase kinetics of purified NOCT; type: biochemical

Kd (Nocturnin (NOCT) [1]) [µM] | Kd (Nocturnin (NOCT) [2]) [µM] | Kd (Nocturnin (NOCT) [3]) [µM] | Kd (Nocturnin (NOCT) [4]) [µM] | steady-state phosphatase kinetics of purified NOCT (malachite green); value is k (Nocturnin (NOCT) [5]) | Structure (SMILES)
308 | 473 | 219 | 338 |  | NC(=O)C1=CN([C@@H]2O[C@H](COP(=O)(O)OP(=O)(O)OC[C@H]3O[C@@H](n4cnc5c(N)ncnc54)[C@H](OP(=O)(O)O)[C@@H]3O)[C@@H](O)[C@H]2O)C=CC1 [NADPH]
 |  |  |  | 78 | NC(=O)c1ccc[n+]([C@@H]2O[C@H](COP(=O)(O)OP(=O)(O)OC[C@H]3O[C@@H](n4cnc5c(N)ncnc54)[C@H](OP(=O)(O)O)[C@@H]3O)[C@@H](O)[C@H]2O)c1 [NADP^+]

— publication PMC13340911 (Archives of biochemistry and biophysics, 2025)
